“Also recorded” adds a separate entry of the source. Where two headings read alike, the source gives them in different places.
Key:
[1] = tested on: E. coli, S. typhimurium and P. aeruginosa; assay: Screen across all three species / conservation of drug-drug interactions; assay type: cell-based; conditions: for General effect in combinations: conserved interaction network; for Antibacterial activity / growth inhibition of the drug on its own: single drug, in the screen
Experimental: Conservation of drug-drug interactions between strains of the same species was assessed by Pearson correlation of the interactions scores ε. For potentially non-conserved drug-drug interactions, the expected fitness distributions of the two strains were taken into account.
To assess the cross-species conservation of drug-drug interactions, the inventors took into account only drug pairs that were probed in all three species. […] Interactions were then compared across the three species. Cases in which an interaction between drugs changed sign across species (conflicting interactions; ˜7% of all interactions) were excluded from the comparative “across-species” Venn diagram (FIG. 3D). Note that with current analysis a given drug-drug interaction may be conserved across species, but not conserved within the species.
Conservation at the single drug level was defined based on shared resistance and sensitivity. A strain was considered sensitive to a given drug if one of the drug concentrations inhibited growth for at least 30%.

[2] = tested on: MDR clinical isolates E. coli 124, 1027, 1334; assay: 8×8 checkerboard assays against MDR clinical isolates; assay type: cell-based, Escherichia coli
Excerpt: (§1) For each of the three Gram-negative species profiled in this study, the inventors used two broadly used and sequenced strains: Escherichia coli K-12 BW25113 and O8 IAI1, Salmonella enterica serovar typhimurium LT2 and 14028s, Pseudomonas aeruginosa PAO1 and PA14. To validate selected synergies, the inventors profiled 6 MDR clinical Enterobacteriaceae isolates recovered from human patient specimens: E. coli 124, 1027, 1334 and Klebsiella pneumoniae 718, 929 and 980.

[3] = tested on: MDR clinical isolates Klebsiella pneumoniae 718, 929 and 980; assay: as above; assay type: cell-based; conditions: MDR K. pneumoniae isolates
Excerpt: as §1

[4] = tested on: E. coli BW and E. coli iAi1; assay: Benchmarking 8×8 checkerboard assays (Bliss / Loewe additivity); assay type: cell-based, Escherichia coli; conditions: 8×8 checkerboards
Excerpt: For combinations between ß-lactams for which high-resolution 8×8 checkerboards with sufficient growth inhibition was available in the validation dataset, Loewe additivity was used to confirm the interactions. Drug-drug interactions were inferred by the shape of the isoboles (lines of equal growth) in two-dimensional drug concentration plots. […] To interpolate IC50 concentrations (or other ICn %), a logistic model was used to fit the growth for each concentration of the first drug across different concentrations of the second drug. The null-hypothesis of this model is represented by the additivity line: a linear isobole connecting equal individual IC's by the two drugs.
As in the screen, growth was assessed based on OD595 nm at early stationary phase for the no drug controls. The time-points used in the screen were used again here for screen strains, whereas 8 hours were used for all E. coli and K. pneumoniae MDR isolates. Fitness was calculated by dividing OD595 nm after single or double drug treatment by no drug treatment for each individual checkerboard. Bliss scores (ε) were calculated for all concentration ratios tested per drug combination, resulting in 49 ε values per drug pair. […] Antagonism was called when the median of the & distribution was above 0.1 or the Q3 was above 0.15. […]

[5] = tested on: E. coli (BW25113 wildtype and mutants); assay: Minimal Inhibitory Concentration (MIC) calculation; assay type: cell-based, Escherichia coli; conditions: for Effect on MIC of chloramphenicol / Effect on MIC of ciprofloxacin: vanillin 150 μg/ml, aspirin 500 μg/ml, E. coli; for MIC: Escherichia coli
Experimental: MICs to all drugs were computed using a logistic fit of growth (OD595 nm for 8 h) over 2-fold serial dilutions of the antibiotic concentrations for all strains used for the high throughput screening and follow-up experiments.

[6] = tested on: E. coli BW mutants (ΔacrA, respiration-defective); assay type: cell-based, Escherichia coli; conditions: ciprofloxacin 70% MIC
Experimental: Aminoglycosides depend on PMF-energized uptake and thus respiratory complexes; ciprofloxacin is effluxed by AcrAB-TolC. […] Bliss interaction scores (ε) were calculated as in the screen and are represented by the mean and standard deviation across 3-8 replicates. d) Gentamicin and ciprofloxacin antagonism networks for E. coli BW. Nodes represent drugs colored according to targeted cellular process (as FIG. 1a). Full and dashed edges represent antagonistic drug-drug interactions for which intracellular antibiotic concentration was and was not measured, respectively. […] The bars for fluoroquinolones and aminoglycosides account for an extrapolation of antagonistic interactions to all other members of the two classes, assuming they behave the same as ciprofloxacin and gentamicin, respectively.
The kanamycin resistance cassettes was excised when necessary using the plasmid pCP20. The plasmid used for mdfA overexpression was obtained from the mobile E. coli ORF library.

E. coli BW25113 = assay: Intracellular spectinomycin concentration with [3H]-spectinomycin; assay type: cell-based, Escherichia coli; conditions: vanillin 150 μg/ml; mdfA-dependent
Experimental: Intracellular spectinomycin was quantified by measuring [3H]-spectinomycin (1 μCi/mg; Hartmann Analytic Corp.). Overnight cultures of E. coli BW25113 were diluted 1:1,000 into 1 ml LB with and without vanillin (150 μg/ml) and grown to OD595 nm˜0.5. 50 μg/ml [3H]-spectinomycin:spectinomycin 1:100 was added and the cultures were incubated for 1 h. Cultures were pelleted, washed twice with PBS with 50 μg/ml non-labeled spectinomycin, re suspended in 1% SDS and incubated for 20 min at 85° C. The lysate was mixed with 8 ml liquid scintillation (Perkin Elmer ULTIMA Gold) and counted for 1 min using a Perkin Elmer Tri-Carb 2800TR. Measured radioactivity was normalized to cell number as measured by OD595 nm.

marA = assay: Quantitative RT-PCR of marA expression; assay type: cell-based, Escherichia coli; conditions: vanillin 150 μg/ml
Experimental: Overnight cultures of E. coli BW25113 and the marR deletion mutant were diluted 1:2,000 into 20 ml LB and grown at 37° C. to OD595 nm˜0.2. Aspirin or vanillin were added to the cultures to 500 and 150 μg/ml final concentration respectively (DMSO was added in the control), followed by a 30 min incubation period at 37° C. with agitation. Cells were harvested and RNA extraction was done with the RNeasy Protect Bacteria Mini Kit (Qiagen) according to manufacturer's directions. cDNA was prepared for qRT-PCR using SuperScript™ III Reverse Transcriptase (Thermo Fisher Scientific). marA and mdfA expression levels were estimated by quantitative RT-PCR using SYBR™ Green PCR master mix following the manufacturer's instructions (Thermo Fisher Scientific). Primer sequences for marA and recA are previously described. All experiments were conducted in at least three biological replicates, and relative expression levels were estimated according to Livak et al., using recA expression as reference.

AcrA = assay: Immunoblot analysis for AcrA protein quantification; assay type: cell-based, Escherichia coli; conditions: vanillin 150 μg/ml; marA-dependent
Experimental: Overnight cultures of E. coli BW25113 and the ΔmarA mutant were diluted 1:1,000 into 50 ml LB containing 500 μg/ml aspirin, 150 μg/ml vanillin or DMSO (drugs solvent control), followed by growth with agitation at 37° C. to OD595 nm˜0.5. Cells were washed in PBS containing corresponding drugs or DMSO, then resuspended to match OD595 nm=1. Cell pellets were resuspended in Laemmli buffer and heated to 95° C. for 3 minutes followed by immunoblot analysis with a-AcrA polyclonal antiserum (gift from K. M. Pos) at 1:200,000 dilution. Primary antiserum was detected using anti-rabbit HRP (A0545 Sigma) at 1:5,000 dilution. Pixel densities of bands were quantified using ImageJ. At least five different biological replicates were blotted and summarized by their mean and standard deviation.

E. coli MG1655 = assay: Intracellular gentamicin concentration with [3H]-gentamicin; assay type: cell-based, Escherichia coli; conditions: gentamicin 5 μg/ml plus second drug
Experimental: Intracellular gentamicin was quantified by measuring [3H]-gentamicin (1 mCi/ml; Hartmann Analytic Corp.), as previously described. Overnight cultures of E. coli MG1655 (ther parental stain of BW25113) were diluted 1:1,000 into 5 ml LB and grown to OD595 nm˜0.1. [3H]-gentamicin was diluted in cold gentamicin to get a 5 mg/ml (0.1 mCi/ml) stock solution, which was then added to the culture at a final concentration of 5 μg/ml (0.1 μCi/ml), simultaneously with the second drug: Berberine (200 μg/ml), Erythromycin (15 μg/ml), Metformin (13000 μg/ml), Procaine (6000 μg/ml), Loperamide (400 μg/ml), Benzalkonium (5 μg/ml). […] Cultures were then incubated at 37° C. on a rotary shaker. At 0, 0.5, 1, 1.5 and 2 h time-points, 500 μl aliquots were removed and applied to a 0.45 μm-pore-size HAWP membrane filter (Millipore) pretreated with 1 ml of unlabeled gentamicin (250 μg/ml). Filters were washed with 10 ml of 1.5% NaCl, placed into counting vials, and dried for 30 min at 52° C. 8 ml of liquid scintillation were then added to the dried filters and vials were incubated overnight at room temperature before being counted for 5 min. Gentamicin uptake efficiency is expressed as total accumulation of gentamicin (ng) per 108 cells, and plotted here for the final timepoint (2 h) for simplicity.

Compound: CN(C)C(=O)C(CCN1CCC(O)(c2ccc(Cl)cc2)CC1)(c1ccccc1)c1ccccc1 [Loperamide, loperamide]
- General effect in combinations [1]: general potentiating effect
- Effect on activity of colistin ([2]; MDR E. coli isolates): potentiated
- Effect on activity of doxycycline ([2]; MDR E. coli isolates): potentiated
- Effect on activity of colistin [3]: potentiated
- Effect on activity of doxycycline [3]: potentiated

Compound: CCN1CCN(C(=O)N[C@@H](C(=O)N[C@@H]2C(=O)N3[C@@H]2SC(C)(C)[C@@H]3C(=O)O)c2ccccc2)C(=O)C1=O [Piperacillin, piperacillin]
- Growth inhibition reached by single drug [4]: did not reach 50% growth inhibition

Compound: CC(=O)Oc1ccccc1C(=O)O [aspirin, acetylsalicylic acid]
- Effect on MIC of chloramphenicol [5]: increase
- Effect on MIC of ciprofloxacin [5]: increase

Compound: Cn1c(=O)c2c(ncn2C)n(C)c1=O [caffeine]
- Antagonism with ciprofloxacin in mutant [6]: resolved

Compound: COc1cc(/C=C/C(=O)CC(=O)/C=C/c2ccc(O)c(OC)c2)ccc1O [curcumin]
- Antagonism with ciprofloxacin in mutant [6]: remain largely intact

Compound: C[n+]1ccc(-c2cc[n+](C)cc2)cc1 [paraquat]
- Antagonism with ciprofloxacin in mutant [6]: resolved

Compound: CCN(CC)CCOC(=O)c1ccc(N)cc1 [procaine]
- General effect in combinations [1]: general potentiating effect
- Antibacterial activity / growth inhibition of the drug on its own [1]: did not inhibit bacterial growth on its own
- Effect on activity of doxycycline ([2]; MDR E. coli isolates): resensitized
- Effect on activity of fusidic acid ([2]; MDR E. coli isolates): resensitized
- Effect on activity of doxycycline [3]: resensitized
- Effect on activity of fusidic acid [3]: resensitized

Compound: CN[C@@H]1[C@H](O)[C@H](NC)[C@H]2O[C@@]3(O)C(=O)C[C@@H](C)O[C@H]3O[C@@H]2[C@H]1O [spectinomycin]
- Spectinomycin MIC change upon addition of vanillin ([5]; 100 μg/ml vanillin, wildtype E. coli BW and knockouts of AcrAB-TolC members or MarA): decreases
- MIC ([5]; BW25113, read-out: MIC of spectinomycin, E. coli, with vanillin (65 μg/ml)): ~15 µg/mL
- MIC ([5]; BW25113, read-out: MIC of spectinomycin, largely resistant E. coli, without vanillin): > 30 µg/mL
- Spectinomycin MIC change ([5]; deletion of mdfA): increased
- Spectinomycin sensitivity (dose response) ([5]; overexpression of mdfA (pmdfA) vs E. coli BW, MIC does not change): increased spectinomycin sensitivity
- Increase of spectinomycin MIC ([5]; with 500 μg/ml aspirin): ~3 fold
- Decrease of spectinomycin MIC ([5]; with vanillin, mild overexpression of mdfA (pmdfA), comparing to MIC of combination in wildtype): ~2 fold

Compound: COc1cc(C=O)ccc1O [vanillin]
- Antibacterial activity / growth inhibition of the drug on its own [1]: no antibacterial activity
- Effect on activity of spectinomycin ([2]; E. coli MDR isolates): potentiated
- Effect on MIC of chloramphenicol [5]: increase
- Effect on MIC of ciprofloxacin [5]: increase
- Effect on intracellular spectinomycin concentration (E. coli BW25113): increased; also recorded: accumulation
- marA expression (marA): overexpression
- AcrA protein levels (AcrA): increases

Compound: COc1ccc(CCN(C)CCCC(C#N)(c2ccc(OC)c(OC)c2)C(C)C)cc1OC (stereo not shown) [verapamil]
- General effect in combinations [1]: general potentiating effect

Compound: benzalkonium
- Effect on intracellular gentamicin concentration (E. coli MG1655): decreases
- Antagonism with ciprofloxacin in mutant [6]: remain largely intact

— patent US12668830B2, “Pharmaceutical compositions for prevention and/or treatment of infections and antibacterial-induced dysfunctions” (priority 2018, dated 2026)
